From US10053666B2, “Medium for preparing a neural cell and usage thereof” (SHENZHEN CELL INSPIRE BIOTECHNOLOGY CO., LTD., priority 2014, dated 2018)

How the values were obtained:
IMR90 = assay: Conversion of fibroblast cell line to neural cell / iOPC in neural induction medium; format: cell-based, human; settings: for conversion into neural cell: 10 μM in neural induction medium, IMR90
Method: (§1) Using the same method with EXAMPLE 1, cultured fiber cell line IMR90 and WI38 with neural induction medium including 10 μM Y27632, Palomid 529, LY294002, PF562271 or rapamycin.
(§2) In contrast, after 4 weeks in the same induction medium without ROCK inhibitor, cells kept fibroblast morphology with negative staining of O4, A2B5, and S100β (data not shown). […] To confirm conversion of fibroblasts to iOPCs by ROCK inhibitor, additional two human primary fibroblast cell lines, IMR90 and WI38, were tested using the same fibroblast—OPC conversion conditions. Consistent with the results from adult dermal cells, inventors observed 60-80% of fibroblast—OPC conversion in these two cell lines (data not shown). Next, inventors assessed whether the iOPCs could differentiate into mature oligodendrocytes. After removing growth factors and addition of thyroid hormone (a known inducer of oligodendrocyte differentiation) in cell culture medium, about 70% of the iOPCs differentiated into cells with a multiprocessed morphology typical of oligodendrocytes within 3-7 days (FIG. 2b). The oligodendrocytes expressed myelin basic protein (MBP), an integral protein component of the myelin sheath, and other defining markers of mature oligodendrocytes, including myelin-associated glycoprotein and myelin oligodendrocyte glycoprotein (FIG. 2b). Thus, inventors concluded that ROCK inhibitor-induced iOPCs can be further differentiated into mature functional oligodendrocytes.

WI38 = assay: as above; format: cell-based, human; settings: for conversion into neural cell: 10 μM in neural induction medium, WI38
Method: as §1, §2

IMR90 fibroblasts = assay: Direct conversion of fibroblasts to neurons and astrocytes; format: cell-based, human
Method: To assess the general application of ROCK inhibitor for direct conversion of different neural cells, inventors tweaked the protocol for induction of iOPCs and successfully converted fibroblasts to typical neurons and astrocytes. using the following procedure:
at Day 1, coat tissue culture 24-well plate with 0.1 mg/ml Poly-L-ornithine solution (sigma, P4957) for at least 3 hours; wash wells 3 times with autoclaved MilliQ water, 5 mins each; add 500 ul/well of 2 μg/ml Fibronectin (sigma, F0556) and 10 μg/ml Laminin (ROCHE, 11243217001) solution in 1×PBS and place in incubator overnight to coat. At Day 2, aspirate the F/L solution from the well, wash with basic medium and plate fibroblast cells with basic medium at 2×10^4 cells per well. At Day 3, aspirate basic medium from the well, wash with PBS once, and feed cells with induction medium. From Day 6-10, when cells change their morphology into neural-like cells, culture cells with mature medium or OPC medium.

dermal fibroblasts = assay: Immunostaining of OPC-specific biomarkers after 7-day induction; format: cell-based, human
Method: After 7-day induction with ROCK inhibitor treatment, cells were fixed and analyzed by immunostaining of the OPC-specific biomarker, O4. Immunofluorescence staining was performed as following steps:
Briefly, 5×10^4 modified human fibroblasts were planted on coated glass coverslips the day before induction. After induction, cells were fixed for 20 min at room temperature in 4% paraformaldehyde in PBS, permeabilized for 30 min in PBS containing 0.2% Triton X-100 and 10% normal goat serum (NGS), and incubated overnight at 4° C. in PBS containing 10% NGS and primary antibodies. Then cells were washed three times with PBS and incubated for 2 h at room temperature with anti-rabbit or anti-mouse secondary antibodies Alexa Fluor-488 or Alexa Fluor-594 (1:500, Invitrogen). The images were acquired by immunofluorescence microscope or Zeiss LSM 510 META confocal microscope with 40×, 1.3 numerical aperture oil-immersion objective.
The following antibodies were used for the immunofluorescence studies: mouse anti-04 (Millipore, 1:50), rabbit anti-NF (Sigma-Aldrich, 1:1000), mouse anti-A2B5 (Millipore, 1:50), MBP (1:100, Covance; 1:100, Abcam), MAG (Millipore, 1:50), MOG (Millipore, 1:50).

[1] = tested on: human adult dermal fibroblasts; assay: Screening of protein kinase inhibitor library for fibroblast-OPC conversion; format: cell-based; settings: with retinoic acid (RA), neural induction medium, quantified on day 7
Method: 1. Coated cell culture 24-well plate with 0.1 mg/ml Poly-L-ornithine solution (sigma, P4957) for at least 3 hours. Then washed wells 3 times with autoclaved MilliQ water, 5 mins per time.
2. Added 500 ul/well of […] Fibronectin (sigma, F0556) and […] Laminin (ROCHE, 11243217001) solution in 1×PBS and placed in incubator overnight to coat.
3. Aspirated the Fibronectin/Laminin solution from the wells, washed with culture medium.
4. Plated fibroblast cells with Basic Medium at 2×10^4 cells (human adult dermal fibroblasts, ATCC, PCS-201-012) per well, cultured overnight. The Basic Medium comprises: DMEM high glucose (HyClone, SH30022), 10% FBS (Fisher Scientific, SH3007003), 10 mM HEPES (CORNING 25060-CL), 1×MEM NEAA (100×) (GIBCO, 11140) (MEM Non-Essential Amino Acids Solution), 1 mM Na Pyruvate (GIBCO, 25000), 1×2-Mercaptoethanol (1000×) (GIBCO, 21985), 1× Glutamax (100×) (GIBCO, 35050), penicillin/streptomycin.
5. Aspirated Basic Medium from the wells.
7. Fed wells with Induction Medium. Changed medium every two days. […]

Compound | conversion into neural cell (IMR90) | conversion into neural cell (WI38) | staining of astrocyte-specific biomarker GFAP in induced astrocytes (IMR90 fibroblasts; induced astrocytes) | staining of neuronal biomarkers Tuj and MAP2 in induced neuronal cells (IMR90 fibroblasts; induced neuronal cells (iNCs)) | dermal fibroblasts converted to O4-positive cells with OPC morphology (dermal fibroblasts; 7-day induction) | staining with additional OPC markers A2B5 and S100β (dermal fibroblasts; O4 positive cells after 7-day induction) | fibroblast-OPC conversion (IMR90; IMR90, same conversion conditions (data not shown)) | fibroblast-OPC conversion (WI38; WI38, same conversion conditions (data not shown)) | efficiency of conversion of human fibroblasts into iOPCs (OPC positive cells counted by morphology) [1] [%]
CN(c1ncccc1CNc1nc(Nc2ccc3c(c2)CC(=O)N3)ncc1C(F)(F)F)S(C)(=O)=O [PF562271] | converted into neural cell | converted into neural cell | – | – | – | – | – | – | –
COc1ccc(COc2cc3oc(=O)c4cc(C(C)O)ccc4c3cc2OC)cc1 (stereo not shown) [Palomid 529] | converted into neural cell | converted into neural cell | – | – | – | – | – | – | –
C[C@@H](N)[C@H]1CC[C@H](C(=O)Nc2ccncc2)CC1 [Y27632] | converted into neural cell | converted into neural cell | positive staining | positive staining | about 80% | positive staining | 60-80% | 60-80% | ~80
